Measured values from US8933228B2, “Respiratory formulations and compounds for use therein” (Respivert, Ltd., priority 2010, dated 2015).
Where two headings read alike, the source gives them in different places.

Key:
[1] = test system: TNFα release in d-U937 cells; test: LPS-induced TNFα release in d-U937 cells; format: cell-based; settings: Homo sapiens, dU937, LPS 0.1 μg/mL, 4 hr, relative to 10 μg/mL BIRB796, read-out: d-U937 (LPS) TNFα REC50
Method: (§1) U937 cells, a human monocytic cell line, were differentiated to macrophage-type cells by incubation with phorbol myristate acetate (PMA; 100 ng/mL) for 48 to 72 hr, whereupon the cells become adherent. […] Coli: O111:B4, Sigma) for 4 hr. The supernatant was collected for determination of TNFα and IL-8 concentrations by sandwich ELISA (Duo-set, R&D systems). […] The relative 50% effective concentration (REC50) was determined from the resultant concentration-response curve. The inhibition of IL-8 production was calculated at each concentration of test compound by comparison with vehicle control.

[2] = test system: ICAM-1 expression in BEAS2B cells; test: Poly I:C-induced ICAM-1 induction in BEAS2B cells; format: cell-based; settings: Homo sapiens, BEAS-2B, read-out: BEAS2B (polyIC) ICAM1 IC50
Method: Poly I:C (1 μg/mL) (Invivogene Ltd., San Diego, Calif.) was transfected into BEAS2B cells (human bronchial epithelial cells, ATCC) with Oligofectamine (Invitrogen, Carlsbad, Calif.). Cells were pre-incubated with final concentrations of test compounds for 2 hr and the level of ICAM1 expression on the cell surface was determined by cell-based ELISA. […] The cells were washed with PBS-Tween and incubated with the secondary antibody (HRP-conjugated anti-rabbit IgG, Dako Ltd., Glostrup, Denmark).

[3] = test system: HRV16; test: Rhinovirus-titre assay; format: cell-based, human rhinovirus; settings: Human rhinovirus sp.; for inhibition at 0.04 µg/mL: cell not marked b, test compounds 0.04 μg/mL per method (footnote b, 0.2 μg/mL)
Method: MRC5 cells (human lung fibroblast, ATCC) were infected with 1 MOI (multiplicity of infection of 1.0) of HRV16 and incubated for 1 hr at 33° C. with gentle shaking to stimulate adsorption. The cells were then washed with PBS, fresh media was added and the cells were incubated for a further 96 hr. The supernatant was collected and 10-fold serial dilutions of virus containing supernatant were prepared. All titrations were performed by infecting confluent Hela cell monolayers with serially diluted supernatant (10^−1-10^−5) and assessing the cytopathic effect by visual inspection 4 days after infection. The amount of virus required to infect 50% of Hela cells was calculated in each treatment as TCID50. Test compounds (0.04 μg/mL) were added 2 hr before HRV infection and 1 hr after infection when non-infected HRV was washed out. The anti-HRV activity of each test compound was determined as the difference of the log TCID50 of HRV16 in the presence of the compound with the log TCID50 of HRV16 in the absence of compound. […]

[4] = test system: IL-8 release in d-U937 cells; test: LPS-induced IL-8 release in d-U937 cells; format: cell-based; settings: Homo sapiens, read-out: d-U937 (LPS) IL-8 IC50
Method: as §1

[5] = test system: TNFα release in THP-1 cells; test: LPS-induced TNFα release in THP-1 cells; format: cell-based; settings: Homo sapiens, read-out: THP1 (LPS) TNFα IC50
Method: The inhibition of TNFα production was calculated at each concentration by comparison with vehicle control.

[6] = test system: Differentiated U937 cells; test: MTT assay: cell viability; format: cell-based, human; settings: for d-U937 MTT Assay 4 h: 5% FCS; for d-U937 MTT Assay 24 h: 10% FCS
Method: Differentiated U937 cells were pre-incubated with each test compound under two protocols: the first for 4 hr in 5% FCS and the second in 10% FCS for 24 h. The supernatant was replaced with 200 μL of new media and 10 μL of MTT stock solution (5 mg/mL) was added to each well. After incubation for 1 hr the media were removed, 200 μL of DMSO was added to each well and the plates were shaken lightly for 1 hr prior to reading the absorbance at 550 nm. The percentage loss of cell viability was calculated for each well relative to vehicle (0.5% DMSO) treatment. Consequently an apparent increase in cell viability for drug treatment relative to vehicle is tabulated as a negative percentage.

[7] = BEAS2B cells, poly I:C 1 μg/mL, 18 hr
[8] = HRV16, cell marked b: performed at 0.2 μg/mL, read-out: HRV titre (inhibitory %): % inhibition observed vs. HRV16 infection control
[9] = dU937, d-U937 cells, LPS 0.1 μg/mL, 4 hr
[10] = HRV16, read-out: HRV titre (inhibitory %): % inhibition observed vs. HRV16 infection control

**Q.** `Cc1ccc(-n2nc(C(C)(C)C)cc2NC(=O)Nc2ccc(OCCN3CCOCC3)c3ccccc23)cc1` [BIRB 796, 1-(3-tert-butyl-1-p-tolyl-1H-pyrazol-5-yl)-3-(4-(2-morpholinoethoxy)naphthalen-1-yl)urea, reference compound] was tested. Which EC50 [1] did it give?
**A.** Its EC50 is 4.8 nM.

**Q.** And the IC50 [2, 7]?
**A.** The IC50 was 3530 nM.

**Q.** And the inhibition at 0.2 µg/mL [3, 8]?
**A.** The inhibition at 0.2 µg/mL was 28%.

**Q.** What about the IC50 [4, 9] of the same molecule?
**A.** The IC50 was over 1890 nM.

**Q.** And the IC50 ([5]; THP-1 cells, LPS 3 μg/mL, 4 hr)?
**A.** Its IC50 is 4.1 nM.

**Q.** And the “d-U937 MTT Assay 4 h” value ([6]; performed at 10 μg/mL)?
**A.** The value was “− ^d (− and + indicate the result is below and above the no significant effect threshold, respectively (<30% inhibition at a concentration of 1 μg/ml))”.

**Q.** And the “d-U937 MTT Assay 24 h” value ([6]; performed at 10 μg/mL)?
**A.** The value was “− ^d (− and + indicate the result is below and above the no significant effect threshold, respectively (<30% inhibition at a concentration of 1 μg/ml))”.

**Q.** How did the EC50 [1] turn out when `COCC(=O)Nc1cc(COc2ccc(NC(=O)Nc3cc(C(C)(C)C)nn3-c3ccc(C)cc3)c3ccccc23)ccn1` [Ref. 1, N-(4-((4-(3-(3-tert-butyl-1-p-tolyl-1H-pyrazol-5-yl)ureido)naphthalen-1-yloxy)methyl)pyridin-2-yl)-2-methoxyacetamide, reference compound] was run?
**A.** The EC50 was 0.9 nM.

**Q.** What about the IC50 ([2]; 18 h) of the same molecule?
**A.** Its IC50 is 618 nM.

**Q.** What about the inhibition at 0.2 µg/mL [3, 10] of the same molecule?
**A.** The inhibition at 0.2 µg/mL was 96%.

**Q.** And the IC50 ([4]; dU937, 4 h)?
**A.** Its IC50 is 92 nM.

**Q.** What about the IC50 ([5]; THP-1, 4 h) of the same molecule?
**A.** The IC50 was 2.3 nM.

**Q.** What about the “d-U937 MTT Assay 4 h” value ([6]; performed at 10 μg/mL) of the same molecule?
**A.** The value was “− ^d (− and + indicate the result is below and above the no significant effect threshold, respectively (<30% inhibition at a concentration of 1 μg/ml))”.

**Q.** And the “d-U937 MTT Assay 24 h” value ([6]; performed at 10 μg/mL)?
**A.** Its value is “− ^d (− and + indicate the result is below and above the no significant effect threshold, respectively (<30% inhibition at a concentration of 1 μg/ml))”.

**Q.** For `Cc1ccc(-n2nc(C(C)C)cc2NC(=O)Nc2ccc(Oc3ccnc4[nH]c(=O)cnc34)c3ccccc23)cc1` [Example 30, 1-(3-isopropyl-1-(p-tolyl)-1H-pyrazol-5-yl)-3-(4-((3-oxo-3,4-dihydropyrido[2,3-b]pyrazin-8-yl)oxy)naphthalen-1-yl)urea], which EC50 [1] is on record?
**A.** The EC50 was 1.1 nM.

**Q.** And the IC50 [2, 7]?
**A.** The IC50 was 27 nM.

**Q.** And the inhibition at 0.04 µg/mL [3, 10]?
**A.** Its inhibition at 0.04 µg/mL is 36%.

**Q.** What about the IC50 [4, 9] of the same molecule?
**A.** The IC50 was 4.3 nM.

**Q.** And the IC50 ([5]; THP-1 cells, LPS 3 μg/mL, 4 hr)?
**A.** The IC50 was 34 nM.

**Q.** What about the “d-U937 MTT Assay 4 h” value ([6]; 1 μg/ml) of the same molecule?
**A.** The value was “− (− and + indicate the result is below and above the no significant effect threshold, respectively (<30% inhibition at a concentration of 1 μg/ml))”.

**Q.** What about the “d-U937 MTT Assay 24 h” value ([6]; 1 μg/ml) of the same molecule?
**A.** Its value is “− (− and + indicate the result is below and above the no significant effect threshold, respectively (<30% inhibition at a concentration of 1 μg/ml))”.

**Q.** Which EC50 [1] does the source give for `Cc1ccc(-n2nc(C(C)(C)C)cc2NC(=O)Nc2ccc(Oc3ccnc4[nH]c(=O)cnc34)c3ccccc23)s1` [Example 21] here?
**A.** Its EC50 is 7.1 nM.

**Q.** What about the inhibition at 0.04 µg/mL [3, 10] of the same molecule?
**A.** The inhibition at 0.04 µg/mL was 80%.

**Q.** What about the IC50 [4, 9] of the same molecule?
**A.** The IC50 was 3.3 nM.

**Q.** What about the IC50 ([5]; THP-1 cells, LPS 3 μg/mL, 4 hr) of the same molecule?
**A.** The IC50 was 11 nM.

**Q.** What about the “d-U937 MTT Assay 4 h” value ([6]; 1 μg/ml) of the same molecule?
**A.** Its value is “− (− and + indicate the result is below and above the no significant effect threshold, respectively (<30% inhibition at a concentration of 1 μg/ml))”.

**Q.** And the “d-U937 MTT Assay 24 h” value ([6]; 1 μg/ml)?
**A.** Its value is “− (− and + indicate the result is below and above the no significant effect threshold, respectively (<30% inhibition at a concentration of 1 μg/ml))”.

**Q.** With `COCC(=O)Nc1cc(Oc2ccc(NC(=O)Nc3cc(C(C)(C)C)nn3-c3ccc(C)cc3)c3ccccc23)ccn1` [Ref 2, N-(4-(4-(3-(3-tert-butyl-1-p-tolyl-1H-pyrazol-5-yl)ureido)naphthalen-1-yloxy)pyridin-2-yl)-2-methoxy acetamide, reference compound] as the molecule, how does the EC50 [1] read?
**A.** The EC50 was 0.13 nM.

**Q.** What about the inhibition at 0.2 µg/mL [3, 8] of the same molecule?
**A.** Its inhibition at 0.2 µg/mL is 100%.

**Q.** And the “d-U937 MTT Assay 4 h” value ([6]; 1 μg/ml)?
**A.** Its value is “− (− and + indicate the result is below and above the no significant effect threshold, respectively (<30% inhibition at a concentration of 1 μg/ml))”.

**Q.** What about the “d-U937 MTT Assay 24 h” value ([6]; 1 μg/ml) of the same molecule?
**A.** Its value is “− (− and + indicate the result is below and above the no significant effect threshold, respectively (<30% inhibition at a concentration of 1 μg/ml))”.
